Laboratory results taken from patent publication US5102905A, “Thienyl benzothienyl and dibenzothienyl compounds as inhibitors of aldose reductase” (Imperial Chemical Industries PLC, priority 1988, dated 1992).

Experiments:
[1] = molecular target: T1, aldose reductase (Bos taurus, UniProt P16116); assay: in vitro inhibition of partially purified aldose reductase isolated from bovine lenses (spectrophotometric); type: biochemical; settings: read-out: IC50 in the in vitro test
T1 construct: isolated in known manner from bovine lenses; from tissue; host or cells: bovine lenses
Source text: Thus, in a standard procedure partially purified aldose reductase is isolated in known manner from bovine lenses. The percentage inhibition of this enzyme's ability in vitro to catalyse the reduction of aldoses to polyhydric alcohols, and particularly to reduce glucose or sorbitol, caused by a test compound can then be determined using standard spectrophotometric methods.

[2] = molecular target: T2, aldose reductase (Rattus norvegicus, UniProt P07943); assay: in vivo inhibition of aldose reductase in streptozotocin diabetic rats (residual sorbitol levels in eye lenses and/or sciatic nerves); settings: dosed daily for one, two or five days, read-out: ED50 in the in vivo test
T2 construct: the eye lenses and/or sciatic nerves are removed; from tissue; host or cells: rat eye lenses and/or sciatic nerves (in vivo, streptozotocin-diabetic rats)
Description: Rats are made diabetic (as evidenced by severe glucosuria being present) by dosing with streptozotocin. The animals are then dosed daily with the test compound for one, two or five days. The animals are then sacrificed 2-6 hours after the final dose and the eye lenses and/or sciatic nerves are removed. After a standard work-up procedure the residual sorbitol levels in each tissue are determined by gas liquid chromatography after conversion to the polytrimethylsilyl derivatives. Inhibition of aldose reductase in vivo can then be assessed by comparing the residual sorbitol levels in tissues from the dosed diabetic group of rats with those of an undosed group of diabetic rats and an undosed, normal group of rats.

IC50 [1]: 54 nM | ED50 [2]: 2.1 mg/kg
SMILES: O=[N+]([O-])CS(=O)(=O)c1cccs1 [Example 1, 2-(nitromethylsulphonyl)thiophene]
